Results taken from the supplement of paper PMC10307832.

Columns and labels:
Test in all cases: relative viability (nuclei count vs DMSO), 5 days (fraction); higher = more cells survive
Avagacestat + Lapatinib = compound: NC(=O)[C@@H](CCC(F)(F)F)N(Cc1ccc(-c2ncon2)cc1F)S(=O)(=O)c1ccc(Cl)cc1 [Avagacestat] + CS(=O)(=O)CCNCc1ccc(-c2ccc3ncnc(Nc4ccc(OCc5cccc(F)c5)c(Cl)c4)c3c2)o1 [Lapatinib] (partner 2 µM)
Method in brief: (§1)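 For relative viability, nuclei counts in treated wells were divided by those in vehicle wells. Lung cancer cell lines had been pin-tool dosed in 1536-well plates the day after seeding and cultured for 5 days, then fixed and stained in one step (final 0.05% Triton X-100, 1% formaldehyde, 1 ug/ml Hoechst) and imaged at 4×. Doses were one drug alone or a fixed anchor-drug dose plus five library-drug doses (not always all listed) in √10 steps, and values are duplicate-plate medians.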

Avagacestat + Decitabine = compound: NC(=O)[C@@H](CCC(F)(F)F)N(Cc1ccc(-c2ncon2)cc1F)S(=O)(=O)c1ccc(Cl)cc1 [Avagacestat] + Nc1ncn([C@H]2C[C@H](O)[C@@H](CO)O2)c(=O)n1 [Decitabine] (partner 2 µM)
Method in brief: as §1

Avagacestat + Olaparib = compound: NC(=O)[C@@H](CCC(F)(F)F)N(Cc1ccc(-c2ncon2)cc1F)S(=O)(=O)c1ccc(Cl)cc1 [Avagacestat] + O=C(c1cc(Cc2n[nH]c(=O)c3ccccc23)ccc1F)N1CCN(C(=O)C2CC2)CC1 [Olaparib] (partner 8 µM)
Method in brief: as §1

Avagacestat + AZD7762 = compound: NC(=O)[C@@H](CCC(F)(F)F)N(Cc1ccc(-c2ncon2)cc1F)S(=O)(=O)c1ccc(Cl)cc1 [Avagacestat] + NC(=O)Nc1cc(-c2cccc(F)c2)sc1C(=O)N[C@H]1CCCNC1 [AZD7762] (partner 0.2 µM)
Method in brief: as §1

Cell Line | relative viability (Avagacestat + Lapatinib; first compound 0.08 µM) | relative viability (Avagacestat + Lapatinib; first compound 0.253 µM) | relative viability (Avagacestat + Lapatinib; first compound 0.8 µM) | relative viability (Avagacestat + Lapatinib; first compound 2.53 µM) | relative viability (Avagacestat + Lapatinib; first compound 8 µM) | relative viability (Avagacestat + Decitabine; first compound 0.08 µM) | relative viability (Avagacestat + Decitabine; first compound 0.253 µM) | relative viability (Avagacestat + Decitabine; first compound 0.8 µM) | relative viability (Avagacestat + Decitabine; first compound 2.53 µM) | relative viability (Avagacestat + Decitabine; first compound 8 µM) | relative viability (Avagacestat + Olaparib; first compound 0.08 µM) | relative viability (Avagacestat + Olaparib; first compound 0.253 µM) | relative viability (Avagacestat + Olaparib; first compound 0.8 µM) | relative viability (Avagacestat + Olaparib; first compound 2.53 µM) | relative viability (Avagacestat + Olaparib; first compound 8 µM) | relative viability (Avagacestat + AZD7762; first compound 0.08 µM) | relative viability (Avagacestat + AZD7762; first compound 0.253 µM) | relative viability (Avagacestat + AZD7762; first compound 0.8 µM) | relative viability (Avagacestat + AZD7762; first compound 2.53 µM) | relative viability (Avagacestat + AZD7762; first compound 8 µM)
NCI-H1975 | 0.852 | 1.1 | 1.03 | 0.935 | 0.859 | 0.371 | 0.355 | 0.425 | 0.341 | 0.412 | 1.03 | 1.04 | 0.94 | 0.814 | 0.665 | 0.718 | 0.712 | 0.853 | 0.649 | 0.642
NCI-H1993 | 0.956 | 0.659 | 0.738 | 0.731 | 0.674 | 0.618 | 0.583 | 0.618 | 0.611 | 0.564 | 1.28 | 1.1 | 1.17 | 1.17 | 0.836 | 0.956 | 0.61 | 0.741 | 0.731 | 0.6
NCI-H2085 | 0.805 | 0.939 | 0.912 | 0.728 | 0.811 | 0.531 | 0.609 | 0.639 | 0.572 | 0.585 | 0.823 | 0.833 | 0.847 | 0.825 | 0.8 | 1.07 | 1.13 | 1.09 | 1.08 | 0.794
NCI-H2087 | 1.33 | 1.04 | 1.05 | 1.25 | 1.06 | 0.3 | 0.279 | 0.374 | 0.25 | 0.257 | 0.806 | 0.613 | 0.884 | 0.62 | 0.543 | 1.41 | 1.65 | 1.31 | 1.24 | 1.18
NCI-H2126 | 0.767 | 0.837 | 0.805 | 0.722 | 0.657 | 0.615 | 0.661 | 0.577 | 0.575 | 0.611 | 0.921 | 0.941 | 0.931 | 1.03 | 0.873 | 1.02 | 0.979 | 1.01 | 0.912 | 1.02
NCI-H2170 | 0.297 | 0.265 | 0.291 | 0.275 | 0.296 | 0.462 | 0.437 | 0.481 | 0.495 | 0.501 | 0.78 | 0.722 | 0.612 | 0.64 | 0.582 | 0.968 | 1.14 | 0.928 | 0.793 | 0.877
NCI-H2347 | 0.997 | 0.966 | 1.04 | 0.923 | 0.909 | 0.661 | 0.654 | 0.631 | 0.553 | 0.6 | 0.611 | 0.589 | 0.601 | 0.548 | 0.554 | 0.707 | 0.783 | 0.743 | 0.696 | 0.587
NCI-H2405 | 1.02 | 1.12 | 1.21 | 0.958 | 1 | 0.758 | 0.703 | 0.692 | 0.673 | 0.684 | 0.976 | 0.911 | 0.978 | 0.778 | 0.826 | 0.895 | 0.839 | 0.73 | 0.701 | 0.754
NCI-H3122 | 1.1 | 1.1 | 1.03 | 1.05 | 0.99 | 0.513 | 0.428 | 0.445 | 0.402 | 0.37 | 0.717 | 0.735 | 0.885 | 0.659 | 0.645 | 1.09 | 1.11 | 0.997 | 0.908 | 0.964
PC-3 [JPC-3] | 0.485 | 0.541 | 0.472 | 0.479 | 0.475 | 0.857 | 0.808 | 0.824 | 0.789 | 0.87 | 1.21 | 1.28 | 1.36 | 1.13 | 1.2 | 0.983 | 0.972 | 1.19 | 0.842 | 0.775
PC-14 | 0.336 | 0.329 | 0.476 | 0.236 | 0.315 | 0.219 | 0.244 | 0.218 | 0.272 | 0.244 | 0.316 | 0.418 | 0.298 | 0.251 | 0.3 | 0.53 | 0.568 | 0.581 | 0.39 | 0.392
RERF-LC-KJ | 1.12 | 0.887 | 0.871 | 0.889 | 0.751 | 0.686 | 0.705 | 0.622 | 0.686 | 0.645 | 1.07 | 1.12 | 1.06 | 1 | 0.978 | 1.02 | 1.14 | 1.24 | 0.929 | 0.751
